Laboratory results reported in US20250025411A1, “READILY SOLUBLE AND THERMOSTABLE GLUCAGON FORMULATIONS AND DELIVERY FOR MINI-DOSING AND CLOSED -LOOP PROPHYLACTIC TREATMENT OF HYPOGLYCEMIA” (Massachusetts Institute of Technology, priority 2023, published 2025).

Assay: High throughput screening of water-soluble solid excipients for glucagon dissolution
Format: physicochemical
Settings: for Fold change vs. PBS Avg.: 30-minute incubation in pH 7.4 PBS containing 1 mg/mL excipient; for Fold change vs. PBS Avg. / Glucagon concentration Avg.: 37° C.; for Glucagon concentration Avg.: solubilized glucagon after 30-minute incubation of lyophilized glucagon in pH 7.4 PBS containing 1 mg/mL excipient; for enhancement of glucagon dissolution (statistical significance compared to no excipient): 30-minute incubation in pH 7.4 PBS at 37° C.

Compound	Fold change vs. PBS Avg.	Glucagon concentration Avg.	enhancement of glucagon dissolution (statistical significance compared to no excipient)	enhancement of solution glucagon concentration compared to unformulated glucagon (pH 7.4 PBS)	Fold change vs. PBS Avg. (listed as L-Histidine)	Glucagon concentration Avg. (listed as L-Histidine)
OC[C@H]1O[C@H](O[C@H]2O[C@H](CO)[C@@H](O)[C@H](O)[C@H]2O)[C@H](O)[C@@H](O)[C@@H]1O [D-(+)-Trehalose]	1.55 fold	0.33 mg/mL	–	–	–	–
N[C@@H](Cc1ccccc1)C(=O)O [L-Phenylalanine]	1.66 fold	0.36 mg/mL	–	–	–	–
Bovine serum albumin	2.86 fold	0.62 mg/mL	–	–	–	–
NC(CO)(CO)CO [Tris base]	2.50 fold	0.54 mg/mL	–	–	–	–
NC(=O)c1cccnc1 [Niacinamide]	1.17 fold	0.25 mg/mL	–	–	–	–
O=C(CO)[C@@H](O)[C@H](O)[C@H](O)CO [D-(−)-Fructose]	1.09 fold	0.23 mg/mL	–	–	–	–
OC[C@@H](O)[C@@H](O)[C@H](O)[C@@H](O)CO [D-Sorbitol]	1.16 fold	0.25 mg/mL	–	–	–	–
O=S(=O)(O)CCNC(CO)(CO)CO [TES]	1.75 fold	0.38 mg/mL	–	–	–	–
NC(=O)CNCCS(=O)(=O)O [ACES]	1.12 fold	0.24 mg/mL	–	–	–	–
Methyl-B-Cyclodextrin	1.27 fold	0.27 mg/mL	–	–	–	–
CSCC[C@H](N)C(=O)O [Methionine]	1.81 fold	0.39 mg/mL	–	–	–	–
CC(C)(O)C(Cl)(Cl)Cl [Chlorobutanol Hemihydrate]	1.83 fold	0.39 mg/mL	–	–	–	–
NC(=O)C[C@H](N)C(=O)O.O [Asparagine monohydrate]	1.55 fold	0.33 mg/mL	–	–	–	–
[Cl-].[K+] [Potassium chloride]	1.89 fold	0.41 mg/mL	–	–	–	–
O=C(O)CN(CCOCCOCCN(CC(=O)O)CC(=O)O)CC(=O)O [EGTA]	3.11 fold	0.67 mg/mL	–	–	–	–
CC(C)C[C@H](N)C(=O)O [L-leucine]	1.32 fold	0.28 mg/mL	–	–	–	–
Cl.N[C@@H](CS)C(=O)O [L-Cysteine hydrochloride]	0.93 fold	0.20 mg/mL	–	–	–	–
O=C(O)[C@H](O)[C@@H](O)[C@H](O[C@@H]1O[C@H](CO)[C@H](O)[C@H](O)[C@H]1O)[C@H](O)CO [Lactobionic Acid]	1.35 fold	0.29 mg/mL	–	–	–	–
OC[C@H]1O[C@@H]2O[C@H]3[C@H](O)[C@@H](O)[C@@H](O[C@H]4[C@H](O)[C@@H](O)[C@@H](O[C@H]5[C@H](O)[C@@H](O)[C@@H](O[C@H]6[C@H](O)[C@@H](O)[C@@H](O[C@H]7[C@H](O)[C@@H](O)[C@@H](O[C@H]1[C@H](O)[C@H]2O)O[C@@H]7CO)O[C@@H]6CO)O[C@@H]5CO)O[C@@H]4CO)O[C@@H]3CO [Alpha cyclodextrin]	0.55 fold	0.12 mg/mL	–	–	–	–
O=C(O)CC(O)C(=O)O (centres unmarked) [Malic Acid]	0.35 fold	0.08 mg/mL	–	–	–	–
NCCCC[C@H](N)C(=O)O [L-lysine]	2.84 fold	0.61 mg/mL	–	–	–	–
O=C(O)CN(CCN(CC(=O)O)CC(=O)O)CCN(CC(=O)O)CC(=O)O [Pentetic Acid]	1.95 fold	0.42 mg/mL	–	–	–	–
CCCCCCCCCCCCOP(=O)([O-])OCC[N+](C)(C)C [Dodecylphosphocholine]	4.37 fold	0.94 mg/mL	successfully enhanced the dissolution of glucagon	–	–	–

Compound	Fold change vs. PBS Avg.	Glucagon concentration Avg.	enhancement of glucagon dissolution (statistical significance compared to no excipient)	enhancement of solution glucagon concentration compared to unformulated glucagon (pH 7.4 PBS)	Fold change vs. PBS Avg. (listed as L-Histidine)	Glucagon concentration Avg. (listed as L-Histidine)
O=C([O-])[C@H](O)[C@@H](O)[C@H](O)[C@H](O)CO.[K+] [Potassium Gluconate]	1.61 fold	0.35 mg/mL	–	–	–	–
N[C@@H](Cc1c[nH]c2ccccc12)C(=O)O [L-Tryptophan]	1.54 fold	0.33 mg/mL	–	–	–	–
O=S(=O)(O)CC(O)CN(CCO)CCO (centres unmarked) [DIPSO]	1.28 fold	0.28 mg/mL	–	–	–	–
OC[C@@H](O)[C@@H](O)[C@H](O)[C@H](O)CO [Mannitol]	2.49 fold	0.54 mg/mL	–	–	–	–
CCCCCCCCCCCCCC[N+](C)(C)CCCS(=O)(=O)[O-] [Myristyl sulfobetaine]	5.33 fold	1.15 mg/mL	successfully enhanced the dissolution of glucagon	up to 500%	–	–
O=C(O)C(S)C(S)C(=O)O (centres unmarked) [Dimercaptosuccinic acid]	2.38 fold	0.51 mg/mL	–	–	–	–
CCCCCCCC[N+](C)(C)CCCS(=O)(=O)[O-] [Octyl sulfobetaine]	1.15 fold	0.25 mg/mL	–	–	–	–
C[N+](C)(C)CC(=O)O [Betaine]	1.11 fold	0.24 mg/mL	–	–	–	–
O.O=C[C@H](O)[C@@H](O)[C@H](O)[C@H](O)CO [Dextrose Monohydrate]	1.09 fold	0.24 mg/mL	–	–	–	–
O=S(=O)(O)CCN1CCN(CCO)CC1 [HEPES]	1.15 fold	0.25 mg/mL	–	–	–	–
NC(=O)CC[C@H](N)C(=O)O [L-Glutamine]	3.87 fold	0.83 mg/mL	successfully enhanced the dissolution of glucagon	–	–	–
O=C(O)c1ccccc1 [Benzoic acid]	15.09 fold	3.25 mg/mL	successfully enhanced the dissolution of glucagon	–	–	–
O=C(OC[C@H]1O[C@@H](OC(=O)c2cc(O)c(O)c(OC(=O)c3cc(O)c(O)c(O)c3)c2)[C@H](OC(=O)c2cc(O)c(O)c(OC(=O)c3cc(O)c(O)c(O)c3)c2)[C@@H](OC(=O)c2cc(O)c(O)c(OC(=O)c3cc(O)c(O)c(O)c3)c2)[C@@H]1OC(=O)c1cc(O)c(O)c(OC(=O)c2cc(O)c(O)c(O)c2)c1)c1cc(O)c(O)c(OC(=O)c2cc(O)c(O)c(O)c2)c1 [Tannic Acid]	0.08 fold	0.02 mg/mL	–	–	–	–
OC[C@H]1O[C@@H]2O[C@H]3[C@H](O)[C@@H](O)[C@@H](O[C@H]4[C@H](O)[C@@H](O)[C@@H](O[C@H]5[C@H](O)[C@@H](O)[C@@H](O[C@H]6[C@H](O)[C@@H](O)[C@@H](O[C@H]7[C@H](O)[C@@H](O)[C@@H](O[C@H]8[C@H](O)[C@@H](O)[C@@H](O[C@H]1[C@H](O)[C@H]2O)O[C@@H]8CO)O[C@@H]7CO)O[C@@H]6CO)O[C@@H]5CO)O[C@@H]4CO)O[C@@H]3CO [B-Cyclodextrin]	1.40 fold	0.30 mg/mL	–	–	–	–
O=C[C@H](O)[C@@H](O)[C@@H](O)CO [L-(+)-Arabinose]	1.52 fold	0.33 mg/mL	–	–	–	–
OC[C@H]1O[C@@](CO)(O[C@H]2O[C@H](CO)[C@@H](O)[C@H](O)[C@H]2O)[C@@H](O)[C@@H]1O [Sucrose]	1.32 fold	0.28 mg/mL	–	–	–	–
O=S(=O)(O)CC(O)CN1CCOCC1 (centres unmarked) [MOPSO]	1.37 fold	0.29 mg/mL	–	–	–	–
N[C@@H](Cc1c[nH]cn1)C(=O)O [L-histidine]	2.57 fold	0.55 mg/mL	–	–	1.41 fold	0.30 mg/mL
Sodium deoxycholate	1.75 fold	0.38 mg/mL	–	–	–	–
CNC[C@H](O)[C@@H](O)[C@H](O)[C@H](O)CO [Meglumine]	–	1.32 mg/mL	–	–	–	–
O=C([O-])[C@H](O)[C@@H](O)[C@H](O)[C@H](O)CO.[Na+] [Sodium Gluconate]	0.69 fold	0.15 mg/mL	–	–	–	–
CC(C)[C@H](N)C(=O)O [Valine]	1.89 fold	0.41 mg/mL	–	–	–	–
CCCCCCCCCCCC[N+](C)(C)CCCS(=O)(=O)O [Lauryl sulfobetaine]	0.52 fold	0.11 mg/mL	–	–	–	–
